The subject of the assay is tau protein. The assay can be described thus: Tau protein in vitro degradation assay (Western blot, Tau-13 antibody). Type of assay: cell-based, human. To be noted: SK-N-SH cells, 72 hours of incubation; for Degradation activity* (highest amount of degradation observed at any dosage; tau protein remaining) / Degradation activity (tau protein remaining; highest amount of degradation observed at any dosage): tested at 300 nM, 100 nM, 33 nM and 11 nM, Western blot, Tau-13 antibody; for Activity* (highest amount of degradation observed at any dosage, as tau protein remaining): tested at 1000 nM, 300 nM and 100 nM. On the procedure: Tau Protein In Vitro Degradation Assay
To determine effect of PROTACs on tau protein degradation SK-N-SH cells were seeded in a 24-well tissue culture-treated plate for at least 18-hours prior to compound addition. Tau PROTACs were evaluated for tau degradation by lysing the cells in lysis buffer with protease inhibitors following a 72-hour incubation with tau PROTACs at 1000 nM, 300 nM and 100 nM for Table 1 and 300 nM, 100 nM, 33 nM and 11 nM for Table 2. Cell lysates were run on standard SDS-PAGE gels, and tau levels were detected by Western blotting using Tau-13 antibody from Abcam (Cambridge, UK) that binds to all forms of human tau.
In general terms: In western blotting, separated proteins are transferred to a membrane and probed.

The text below walks through data of patent US11458123B2 (Arvinas, Inc., priority 2016, dated 2022).

On to `Cn1c2ccncc2c2ccc(-c3cnc(OCCOCCOCCOCCOCCOc4ccc5c(c4)C(=O)N(C4CCC(=O)NC4=O)C5=O)c(Cl)c3)cc21` (stereo not shown) [Compound 92, 5-((14-((3-chloro-5-(5-methyl-5H-pyrido[4,3-b]indol-7-yl)pyridin-2-yl)oxy)-3,6,9,12-tetraoxatetradecyl)oxy)-2-(2,6-dioxopiperidin-3-yl)isoindoline-1,3-dione], for which the “Degradation activity* (highest amount of degradation observed at any dosage; tau protein remaining)” value is on record as “A (≤50% tau protein remaining after 72 hours of incubation with the test compound)”. `O=C1CCC(N2C(=O)c3ccc(OCCOCCOCCOCCOCCOc4ccc(-c5ccn6c(n5)nc5ccccc56)cn4)cc3C2=O)C(=O)N1` (stereo not shown) [Compound 207, 5-((14-((5-(benzo[4,5]imidazo[1,2-a]pyrimidin-2-yl)pyridin-2-yl)oxy)-3,6,9,12-tetraoxatetradecyl)oxy)-2-(2,6-dioxopiperidin-3-yl)isoindoline-1,3-dione]: the “Degradation activity (tau protein remaining; highest amount of degradation observed at any dosage)” value was “B (≤80% and >50% tau protein remaining after 72 hours of incubation with the test compound)”. Regarding `Cc1ncsc1-c1ccc(CNC(=O)[C@@H]2C[C@@H](O)CN2C(=O)[C@@H](NC(=O)COCCCCOc2ccc3nc(-c4ccc(N(C)C)cc4)ccc3c2)C(C)(C)C)cc1` [Compound 33, (2S,4R)-1-((S)-2-(2-(4-(2-(4-(dimethylamino)phenyl)quinolin-6-yloxy)butoxy)acetamido)-3,3-dimethylbutanoyl)-4-hydroxy-N-(4-(4-methylthiazol-5-yl)benzyl)pyrrolidine-2-carboxamide], the “Activity* (highest amount of degradation observed at any dosage, as tau protein remaining)” value is reported as “C (>80% tau protein remaining after 72 hours of incubation with the test compound)”. As for `O=C1CCC(N2C(=O)c3ccc(OCCCCCN4CCC(O[C@H]5C[C@H](Oc6ccc(-c7ccc8c(c7)[nH]c7ccncc78)cn6)C5)CC4)cc3C2=O)C(=O)N1` (stereo partly shown) [Compound 65, 5-((5-(4-((1r,3r)-3-((5-(5H-pyrido[4,3-b]indol-7-yl)pyridin-2-yl)oxy)cyclobutoxy)piperidin-1-yl)pentyl)oxy)-2-(2,6-dioxopiperidin-3-yl)isoindoline-1,3-dione], the “Degradation activity* (highest amount of degradation observed at any dosage; tau protein remaining)” value is listed as “C (>80% tau protein remaining after 72 hours of incubation with the test compound)”. `Cn1c2ccncc2c2ccc(-c3ccc(O[C@H]4C[C@@H](OCCCOCCCOC5CN(c6ccc7c(c6)C(=O)N(C6CCC(=O)NC6=O)C7=O)C5)C4)nc3)cc21` (stereo partly shown) [Compound 170, 2-(2,6-dioxopiperidin-3-yl)-5-(3-(3-(3-((1 s,3 s)-3-((5-(5-methyl-5H-pyrido[4,3-b]indol-7-yl)pyridin-2-yl)oxy)cyclobutoxy)propoxy)propoxy)azetidin-1-yl)isoindoline-1,3-dione]: the “Degradation activity (tau protein remaining; highest amount of degradation observed at any dosage)” value is on record as “A (≤50% tau protein remaining after 72 hours of incubation with the test compound)”. Consider `O=C1CCC(N2C(=O)c3ccc(OCC#Cc4ccc(O[C@H]5C[C@H](Oc6ccc(-c7ccc8c(c7)[nH]c7ccncc78)cn6)C5)cc4)cc3C2=O)C(=O)N1` (stereo partly shown) [Compound 189, 5-((3-(4-((1r,3r)-3-((5-(5H-pyrido[4,3-b]indol-7-yl)pyridin-2-yl)oxy)cyclobutoxy)phenyl)prop-2-yn-1-yl)oxy)-2-(2,6-dioxopiperidin-3-yl)isoindoline-1,3-dione], for which the “Degradation activity (tau protein remaining; highest amount of degradation observed at any dosage)” value was “B (≤80% and >50% tau protein remaining after 72 hours of incubation with the test compound)”. Consider `Cc1ncsc1-c1ccc(CNC(=O)[C@@H]2C[C@@H](O)CN2C(=O)[C@@H](NC(=O)COCCOCCOCCOCC(O)COc2ccc3nc(-c4ccc(N(C)C)cc4)ccc3c2)C(C)(C)C)cc1` (stereo partly drawn) [Compound 46, (2S,4R)-1-((2S)-2-tert-butyl-18-(2-(4-(dimethylamino)phenyl)quinolin-6-yloxy)-17-hydroxy-4-oxo-6,9,12,15-tetraoxa-3-azaoctadecane)-4-hydroxy-N-(4-(4-methylthiazol-5-yl)benzyl)pyrrolidine-2-carboxamide], for which the “Activity* (highest amount of degradation observed at any dosage, as tau protein remaining)” value is “C (>80% tau protein remaining after 72 hours of incubation with the test compound)”.
